For assay [1], the target named is His tagged full-length PTPN1 protein (Homo sapiens (Human), UniProt P18031). Briefly: PTPN1 Mobility Shift Assay (MSA). The format is biochemical. As to conditions: enzyme 0.5 nM, substrate 2 μM. Summed up: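 Enzyme at 0.5 nM was preincubated with compound (12-point, 1:3 dilution) for 10 min at room temperature in pH 7.5 HEPES buffer with EDTA, EGTA and DTT. OG488-labelled phosphorylated insulin-receptor peptide at 2 µM was then added for 10 min. After quench, % substrate dephosphorylation was read by mobility shift, and IC50 came from % inhibition.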

The target of assay [2] is His tagged PTPN2 (TC45) protein (Homo sapiens (Human), UniProt P17706). In words: PTPN2 Mobility Shift Assay (MSA). The format is biochemical. The conditions noted are these: for Dihydrobenzofuran or Indoline x-fold>potency biochemical: x-fold versus corresponding chromane comparator, PTPN2 MSA. The essentials: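 His-tagged human PTPN2 (TC45), 0.5 nM, preincubated with compound (12-point, 1:3) 10 min at room temperature in HEPES pH 7.5 buffer with EDTA, EGTA, DTT. Dephosphorylation of 2 μM fluorescent phospho-insulin-receptor peptide over 10 min read by mobility shift; IC50 from % inhibition.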

Assay [3] concerns IFNγ-induced STAT1 phosphorylation (pSTAT1) in B16F10 cells. In words: B16F10 Phospho-STAT1 HTRF proximal pharmacodynamic (PD) assay. The format is cell-based, murine. The conditions noted are these: for EC50: B16-F10, B16F10 cells; for Dihydrobenzofuran or Indoline x-fold>potency cellular: x-fold versus corresponding chromane comparator, B16F10 pSTAT1. Summed up: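 B16F10 cells in phenol red-free DMEM/10% FBS were dosed for 3 h at 37 °C in a 10-point, 3-fold series from 50 μM, then stimulated with 100 nM mouse IFNγ for 10 min and stopped with 3.3 μM staurosporine. pSTAT1 in lysates was measured by HTRF (665 nm emission), and EC50s were fitted from dose-response curves.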
Background: In TR-FRET formats the signal depends on donor and acceptor labels being close together.

[4] abbreviates: 3 hours compound, 100 nM mouse IFNγ 10 minutes, read-out: B16F10 IFNγ Induced pSTAT1 EC50.
Setting [5] is: Table 3, dihydrobenzofuran or indoline compound (X = O or NH).
The mark [6] stands for this setting: Mus musculus, Table 3, dihydrobenzofuran or indoline compound (X = O or NH), read-out: pSTAT1 EC50.

Where two headings read alike, the source gives them in different places.

One may read the IC50 as the point on the concentration scale where inhibition reaches its midpoint. For orientation: EC50 means the concentration at which the effect is half-maximal.

Sequence of His tagged PTPN2 (TC45) protein (P17706 other isoform, or with tags, fused parts or gaps): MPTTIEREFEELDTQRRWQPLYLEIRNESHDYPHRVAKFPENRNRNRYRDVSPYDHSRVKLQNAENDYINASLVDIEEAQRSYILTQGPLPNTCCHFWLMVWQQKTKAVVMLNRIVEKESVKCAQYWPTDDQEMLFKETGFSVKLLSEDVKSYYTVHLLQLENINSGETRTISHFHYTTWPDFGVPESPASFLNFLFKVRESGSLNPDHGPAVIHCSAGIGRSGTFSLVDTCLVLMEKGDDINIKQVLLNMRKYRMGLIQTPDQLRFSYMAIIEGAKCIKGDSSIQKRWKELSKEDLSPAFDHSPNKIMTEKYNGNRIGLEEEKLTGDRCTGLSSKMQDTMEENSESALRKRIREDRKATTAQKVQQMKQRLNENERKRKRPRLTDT
Sequence of His tagged full-length PTPN1 protein (P18031 whole entry): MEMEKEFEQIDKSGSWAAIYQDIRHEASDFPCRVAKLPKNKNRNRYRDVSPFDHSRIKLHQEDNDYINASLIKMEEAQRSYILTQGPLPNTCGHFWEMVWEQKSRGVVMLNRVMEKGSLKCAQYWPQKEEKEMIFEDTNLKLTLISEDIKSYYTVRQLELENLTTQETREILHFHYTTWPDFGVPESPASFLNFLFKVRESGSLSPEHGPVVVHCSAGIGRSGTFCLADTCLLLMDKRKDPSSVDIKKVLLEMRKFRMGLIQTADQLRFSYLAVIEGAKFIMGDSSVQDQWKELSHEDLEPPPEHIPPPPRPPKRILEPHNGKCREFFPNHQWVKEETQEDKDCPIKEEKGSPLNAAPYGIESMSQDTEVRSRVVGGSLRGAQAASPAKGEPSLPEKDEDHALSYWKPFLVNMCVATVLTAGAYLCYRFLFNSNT

For `CC(C)CNC[C@H]1Cc2c(cc(O)c(N3CC(=O)NS3(=O)=O)c2F)N1` [Compound 133, 5-[(2R)-4-fluoro-6-hydroxy-2-{[(2-methylpropyl)amino]methyl}-2,3-dihydro-1H-indol-5-yl]-1λ^6,2,5-thiadiazolidine-1,1,3-trione], the IC50 is 10 to 100 nM in assay [1] and 10 to 100 nM in assay [2] (enzyme 0.5 nM, substrate 2 μM). For the same compound, the EC50 in assay [3] (setting [4]) worked out at 1240 nM.

`CCC(CC)CNC[C@H]1Cc2c(cc(O)c(N3CC(=O)NS3(=O)=O)c2F)N1` [Compound 134, 5-[(2R)-2-{[(2-ethylbutyl)amino]methyl}-4-fluoro-6-hydroxy-2,3-dihydro-1H-indol-5-yl]-1λ^6,2,5-thiadiazolidine-1,1,3-trione]: the IC50 in assay [1] was in the range of 10 to 100 nM; in assay [2] (enzyme 0.5 nM, substrate 2 μM), 10 to 100 nM. Also, the EC50 in assay [3] (setting [4]) stood at 947 nM.

Turning to `CCCNC[C@H]1Cc2c(cc(O)c(N3CC(=O)NS3(=O)=O)c2F)N1` [Compound 135, 5-{(2R)-4-fluoro-6-hydroxy-2-[(propylamino)methyl]-2,3-dihydro-1H-indol-5-yl}-1λ^6,2,5-thiadiazolidine-1,1,3-trione], the IC50 in assay [1] was in the range of 10 to 100 nM; in assay [2] (enzyme 0.5 nM, substrate 2 μM), 10 to 100 nM. Also, in assay [3] (setting [4]), the EC50 turned out to be 756 nM.

Take `COCCNC[C@H]1Cc2c(cc(O)c(N3CC(=O)NS3(=O)=O)c2F)N1` [Compound 136, 5-[(2R)-4-fluoro-6-hydroxy-2-{[(2-methoxyethyl)amino]methyl}-2,3-dihydro-1H-indol-5-yl]-1λ^6,2,5-thiadiazolidine-1,1,3-trione]: the IC50 in assay [1] is 10 to 100 nM; in assay [2] (enzyme 0.5 nM, substrate 2 μM), 10 to 100 nM. Moreover, in assay [3] (setting [4]), the 50% effective concentration (EC50) was 1230 nM.

Regarding `O=C1CN(c2c(O)cc3c(c2F)C[C@H](CNCC2CCC2)N3)S(=O)(=O)N1` [Compound 137, 5-[(2R)-2-{[(cyclobutylmethyl)amino]methyl}-4-fluoro-6-hydroxy-2,3-dihydro-1H-indol-5-yl]-1λ^6,2,5-thiadiazolidine-1,1,3-trione], the IC50 in assay [1] was 10 to 100 nM; in assay [2] (enzyme 0.5 nM, substrate 2 μM) it was 10 to 100 nM. Besides, the 50% effective concentration (EC50) in assay [3] (setting [4]) came out at 904 nM.

For `O=C1CN(c2c(O)cc3c(c2F)C[C@H](CNCC2CCOCC2)N3)S(=O)(=O)N1` [Compound 138, 5-[(2R)-4-fluoro-6-hydroxy-2-({[(oxan-4-yl)methyl]amino}methyl)-2,3-dihydro-1H-indol-5-yl]-1λ^6,2,5-thiadiazolidine-1,1,3-trione], the IC50 in assay [1] was 10 to 100 nM; in assay [2] (setting [5]), 21.6 nM; in assay [2] (enzyme 0.5 nM, substrate 2 μM), 10 to 100 nM. In addition, in assay [2], the “Dihydrobenzofuran or Indoline x-fold>potency biochemical” value was 0.8. In addition, the EC50 in assay [3] (setting [4]) is 1560 nM; in assay [3] (setting [6]), 156000 nM. Also, the “Dihydrobenzofuran or Indoline x-fold>potency cellular” value in assay [3] was determined as 20.6.

For the compound `CC(C)CCNC[C@H]1Cc2c(cc(O)c(N3CC(=O)NS3(=O)=O)c2F)N1` [Compound 139, 5-[(2R)-4-fluoro-6-hydroxy-2-{[(3-methylbutyl)amino]methyl}-2,3-dihydro-1H-indol-5-yl]-1λ^6,2,5-thiadiazolidine-1,1,3-trione], the IC50 in assay [1] was 10 to 100 nM; in assay [2] (setting [5]), 19.8 nM; in assay [2] (enzyme 0.5 nM, substrate 2 μM), 10 to 100 nM. Moreover, the “Dihydrobenzofuran or Indoline x-fold>potency biochemical” value in assay [2] is given as 0.8. For the same compound, the EC50 in assay [3] (setting [4]) and in assay [3] (setting [6]) was 1560 nM in each case. Moreover, in assay [3], the “Dihydrobenzofuran or Indoline x-fold>potency cellular” value stood at 4.5.

On to `O=C1CN(c2c(O)cc3c(c2F)C[C@H](CNCCC(F)F)N3)S(=O)(=O)N1` [Compound 140, 5-[(2R)-2-{[(3,3-difluoropropyl)amino]methyl}-4-fluoro-6-hydroxy-2,3-dihydro-1H-indol-5-yl]-1λ^6,2,5-thiadiazolidine-1,1,3-trione], for which the concentration for half-maximal inhibition (IC50) in assay [1] is 10 to 100 nM; in assay [2] (setting [5]) it was 15.2 nM; in assay [2] (enzyme 0.5 nM, substrate 2 μM), 10 to 100 nM. Besides, in assay [2], the “Dihydrobenzofuran or Indoline x-fold>potency biochemical” value was found to be 0.6. The EC50 in assay [3] (setting [4]) and in assay [3] (setting [6]) was 701 nM throughout. Also, in assay [3], the “Dihydrobenzofuran or Indoline x-fold>potency cellular” value is 5.1.

`O=C1CN(c2c(O)cc3c(c2F)C[C@H](CNCCC(F)(F)F)N3)S(=O)(=O)N1` [Compound 141, 5-[(2R)-4-fluoro-6-hydroxy-2-{[(3,3,3-trifluoropropyl)amino]methyl}-2,3-dihydro-1H-indol-5-yl]-1λ^6,2,5-thiadiazolidine-1,1,3-trione]: the IC50 in assay [1] was 10 to 100 nM; in assay [2] (enzyme 0.5 nM, substrate 2 μM), 10 to 100 nM. The 50% effective concentration (EC50) in assay [3] (setting [4]) was determined as 704 nM.

In the case of `CCC(C)CNC[C@H]1Cc2c(cc(O)c(N3CC(=O)NS3(=O)=O)c2F)N1` (stereo partly drawn) [Compound 142, 5-[(2R)-4-fluoro-6-hydroxy-2-{[(2-methylbutyl)amino]methyl}-2,3-dihydro-1H-indol-5-yl]-1λ^6,2,5-thiadiazolidine-1,1,3-trione], the IC50 in assay [1] fell in the range of 10 to 100 nM; in assay [2] (enzyme 0.5 nM, substrate 2 μM), 10 to 100 nM. The EC50 in assay [3] (setting [4]) turned out to be 1140 nM.

Take `O=C1CN(c2c(O)cc3c(c2F)C[C@H](CNCC2CC(F)(F)C2)N3)S(=O)(=O)N1` [Compound 143, 5-[(2R)-2-({[(3,3-difluorocyclobutyl)methyl]amino}methyl)-4-fluoro-6-hydroxy-2,3-dihydro-1H-indol-5-yl]-1λ^6,2,5-thiadiazolidine-1,1,3-trione]: the IC50 lay in the range of 10 to 100 nM in assay [1] and 10 to 100 nM in assay [2] (enzyme 0.5 nM, substrate 2 μM). Also, the EC50 in assay [3] (setting [4]) was found to be 1000 nM.

As to `O=C1CN(c2c(O)cc3c(c2F)CC(CNCCC2COC2)N3)S(=O)(=O)N1` (stereo not drawn) [Compound 144, 5-[4-fluoro-6-hydroxy-2-({[2-(oxetan-3-yl)ethyl]amino}methyl)-2,3-dihydro-1H-indol-5-yl]-1λ^6,2,5-thiadiazolidine-1,1,3-trione], the IC50 in assay [1] is greater than 100 nM; in assay [2] (enzyme 0.5 nM, substrate 2 μM), 10 to 100 nM. In addition, in assay [3] (setting [4]), the EC50 was found to be 7180 nM.

For `O=C1CN(c2c(O)cc3c(c2F)CC(CNCCCC(F)F)N3)S(=O)(=O)N1` (stereo not drawn) [Compound 145, 5-(2-{[(4,4-difluorobutyl)amino]methyl}-4-fluoro-6-hydroxy-2,3-dihydro-1H-indol-5-yl)-1λ^6,2,5-thiadiazolidine-1,1,3-trione], the IC50 was 10 to 100 nM in assay [1] and 10 to 100 nM in assay [2] (enzyme 0.5 nM, substrate 2 μM). Also, in assay [3] (setting [4]), the EC50 was 1970 nM.

As for `O=C1CN(c2c(O)cc3c(c2F)C[C@H](CNCC2CCCC2)N3)S(=O)(=O)N1` [Compound 146, 5-[(2R)-2-{[(cyclopentylmethyl)amino]methyl}-4-fluoro-6-hydroxy-2,3-dihydro-1H-indol-5-yl]-1λ^6,2,5-thiadiazolidine-1,1,3-trione], the IC50 in assay [1] lay in the range of 10 to 100 nM; in assay [2] (enzyme 0.5 nM, substrate 2 μM), 10 to 100 nM. Besides, the EC50 in assay [3] (setting [4]) was 1830 nM.

As to `O=C1CN(c2c(O)cc3c(c2F)C[C@H](CNCC2CC2)N3)S(=O)(=O)N1` [Compound 147, 5-[(2R)-2-{[(cyclopropylmethyl)amino]methyl}-4-fluoro-6-hydroxy-2,3-dihydro-1H-indol-5-yl]-1λ^6,2,5-thiadiazolidine-1,1,3-trione], the IC50 in assay [1] is 10 to 100 nM; in assay [2] (enzyme 0.5 nM, substrate 2 μM), 10 to 100 nM. Moreover, in assay [3] (setting [4]), the EC50 was found to be 1840 nM.

`CCCC(C)NC[C@H]1Cc2c(cc(O)c(N3CC(=O)NS3(=O)=O)c2F)N1` (stereo partly drawn) [Compound 148, 5-[(2R)-4-fluoro-6-hydroxy-2-{[(pentan-2-yl)amino]methyl}-2,3-dihydro-1H-indol-5-yl]-1λ^6,2,5-thiadiazolidine-1,1,3-trione]: the IC50 in assay [1] is 10 to 100 nM; in assay [2] (enzyme 0.5 nM, substrate 2 μM), less than 10 nM. In addition, the EC50 in assay [3] (setting [4]) turned out to be 1850 nM.

As to `CC[C@@H](C)NC[C@H]1Cc2c(cc(O)c(N3CC(=O)NS3(=O)=O)c2F)N1` [Compound 149, 5-[(2R)-2-({[(2R)-butan-2-yl]amino}methyl)-4-fluoro-6-hydroxy-2,3-dihydro-1H-indol-5-yl]-1λ^6,2,5-thiadiazolidine-1,1,3-trione], the IC50 in assay [1] was 10 to 100 nM; in assay [2] (enzyme 0.5 nM, substrate 2 μM) it was less than 10 nM. Also, the half-maximal effective concentration (EC50) in assay [3] (setting [4]) came to 1560 nM.

In the case of `CCCCNC[C@H]1Cc2c(cc(O)c(N3CC(=O)NS3(=O)=O)c2F)N1` [Compound 150, 5-{(2R)-2-[(butylamino)methyl]-4-fluoro-6-hydroxy-2,3-dihydro-1H-indol-5-yl}-1λ^6,2,5-thiadiazolidine-1,1,3-trione], the 50% inhibitory concentration (IC50) in assay [1] lay in the range of 10 to 100 nM; in assay [2] (enzyme 0.5 nM, substrate 2 μM) it was 10 to 100 nM. Besides, the EC50 in assay [3] (setting [4]) was determined as 2180 nM.

Take `O=C1CN(c2c(O)cc3c(c2F)C[C@H](CO)N3)S(=O)(=O)N1` [Compound 151, 5-[(2R)-4-fluoro-6-hydroxy-2-(hydroxymethyl)-2,3-dihydro-1H-indol-5-yl]-1λ^6,2,5-thiadiazolidine-1,1,3-trione]: the IC50 is 10 to 100 nM in assay [1] and 10 to 100 nM in assay [2] (enzyme 0.5 nM, substrate 2 μM). The 50% effective concentration (EC50) in assay [3] (setting [4]) is 2770 nM.

Turning to `O=C1CN(c2c(O)cc3c(c2F)C[C@H](CNCCC2CC2)N3)S(=O)(=O)N1` [Compound 152, 5-[(2R)-2-{[(2-cyclopropylethyl)amino]methyl}-4-fluoro-6-hydroxy-2,3-dihydro-1H-indol-5-yl]-1λ^6,2,5-thiadiazolidine-1,1,3-trione], the IC50 in assay [1] fell in the range of 10 to 100 nM; in assay [2] (enzyme 0.5 nM, substrate 2 μM) it was 10 to 100 nM. For the same compound, the EC50 in assay [3] (setting [4]) came out at 1170 nM.

For the origin of these results see patent publication US20250019374A1, “PROTEIN TYROSINE PHOSPHATASE INHIBITORS AND METHODS OF USE THEREOF” (Calico Life Sciences LLC, priority 2021, published 2025).
